The source of these data is publication PMC11323243, “Novel Inhibitors of SARS-CoV-2 RNA Identified through Virtual Screening” (Journal of Chemical Information and Modeling, 2024).

Series [1] relates to −1PRF element of SARS-CoV-2. Nature of the series: Dual-luciferase assay measuring frameshift efficiency. It is filed as cell-based. Conditions: Vero E6 cells; for effect on frameshift efficiency (in words): dual-luciferase assay; for reduction of frameshift efficiency: single nontoxic dose.
The subject of series [2] is −1PRF element of SARS-CoV-2. Conditions: previously identified; cited from earlier work.
For series [3], the system named is Omicron (BA.1) SARS-CoV-2. Nature of the series: Antiviral activity, plaque reduction assay on Vero E6 cells. It is filed as cell-based. Conditions: CC50/EC50, Vero E6 cells. Background: Plaque reduction counts the foci of infection that form in a cell layer.
A short description of series [4]: Cell viability (MTT) after 3 days of exposure. The class given is cell-based. The conditions noted are these: African green monkey, Vero E6 cells, read-out: CC50, concentration reducing cell viability by 50%.

Entries after “also recorded” stand apart in the source; their conditions may differ. Some results are limits rather than exact numbers.

Take `Cc1cc2c(cc1CN1CC(CO)C(CN3CCN(C)CC3)C1)OCCO2` (centres unmarked) [Compound 782]: in series [1], the “effect on frameshift efficiency (in words)” value was “significant and improved reduction of frameshift efficiency compared to 194; also recorded: dose-dependent”; the “reduction of frameshift efficiency” value is 38%. Consider `CCNCC1CCN(c2c(F)cc3c(=O)c(C(=O)O)cn(CC)c3c2F)C1` (centres unmarked) [merafloxacin], for which, in series [2], the “inhibition of the −1PRF of SARS-CoV-2 (in words)” value is recorded as “specific inhibition of the −1PRF of SARS-CoV-2”. As for `CN[C@@H]1[C@@H](O)[C@@H](O[C@@H]2[C@@H](O)[C@H](O[C@H]3O[C@H]([C@@H](C)O)[C@@H](O)[C@H](O)[C@H]3N)[C@@H](N)C[C@H]2N)OC[C@]1(C)O` [geneticin], the “inhibition of the −1PRF of SARS-CoV-2 (in words)” value in series [2] is reported as “specific inhibition of the −1PRF of SARS-CoV-2”.

Regarding `OCC1CN(Cc2cc3c(cc2Cl)OCO3)CC1CN1CCCCCC1` (centres unmarked) [Compound 269], the “effect on frameshift efficiency (in words)” value in series [1] is “nonsignificant reduction of frameshift efficiency; also recorded: reduction in frameshift, though not statistically significant”.

Take `Clc1ccc2c(N3CCN(CCCN4CCN(c5ccnc6cc(Cl)ccc56)CC4)CC3)ccnc2c1` [piperaquine, reference compound]: in series [3], the “SI, selective index” value was determined as 0.49. Further, in series [4], the CC50 at 3 days was determined as 5.66 µM. The like results for `OC1CN(Cc2cccc3cc[nH]c23)CCN(c2ccncc2)C1` (centres unmarked) [Compound 229] were, in that order, 3.47 and 93 µM. For `NCCc1ccc(CN2CCC(O)(c3cccc(C(F)(F)F)c3)CC2)cc1` [Compound 188] the same measures were 4.69 and 80.6 µM.

Turning to `Cc1nc(CN)cc(N2CCC(C(O)c3nccn3C)CC2)n1` (centres unmarked) [Compound 32807865], the CC50 at 3 days in series [4] is above 100 µM.

With `Cc1cc2c(cc1CN1CC(CO)C(CN3CCCCCC3)C1)OCCO2` (centres unmarked) [Compound 194], in series [3], the “SI, selective index” value is above 3.46. In series [4], the CC50 at 3 days was above 100 µM. For the same compound, in series [1], the “effect on frameshift efficiency (in words)” value is reported as “significant reduction in frameshift efficiency” and the “reduction of frameshift efficiency” value came to 23%. `OC1CCCN(C2CCN(Cc3ncc[nH]3)CC2)C1` (centres unmarked) [Compound 21256088]: the CC50 at 3 days in series [4] was above 100 µM.
